Structures can show the parent of a compound that is named as a salt.
Assays:
[1] = oral, 120 mg diltiazem hydrochloride, after administration; FIG. 6
Description: (§1) An interval of approximately 5-7 days elapsed between the administration of each agent tested in this example.
(§2) (TM) containing EDTA (ethylenediamine tetraacetic acid) as an anticoagulant just before administration of the test agent; this sample represented the zero time sample. The blood sample was centrifuged for 15 minutes under conditions known to those skilled in the art. The plasma portion of each sample was harvested, frozen and stored at minus 70 degrees Celsius until analysis. At timed intervals after administration, additional blood samples were withdrawn and similarly treated.

clinical = conditions: po, 120 mg
Description: as §1, §2

[2] = cited from earlier work
angina pectoris = conditions: cited from earlier work

Structure (SMILES) | time by which most of the quick release preparation is gone (plasma) [1] | Tmax (clinical; human, plasma) | Tmax (clinical; in vivo) | decrease in bioavailability by first-pass metabolism (loss) ([2]; oral) | plasma half-life ([2]; references 17, 19) | incidence of side effects compared with other calcium channel blockers (angina pectoris; human, in vivo) | safety and efficacy in stable and unstable angina pectoris (angina pectoris; reference 1)
COc1ccc([C@@H]2Sc3ccccc3N(CCN(C)C)C(=O)[C@@H]2OC(C)=O)cc1 [diltiazem hydrochloride] | 5 to 6 h | 1 to 2 h | 1 to 2 h | – | – | – | –
COc1ccc([C@@H]2Sc3ccccc3N(CCN(C)C)C(=O)[C@@H]2OC(C)=O)cc1 [diltiazem] | – | – | – | ≤ 60% | 2 to 6 h | lower incidence of side effects | safe and effective treatment for both stable and unstable angina pectoris

— US6162463A (priority 1998, dated 2000)
